Consider 7 compounds from patent US10730887B2, “Compound containing tricyclic heteroaryl group” (Hangzhou Innogate Pharma Co., Ltd., priority 2016, dated 2020).

One data set addresses CDK2/CycA2 (Homo sapiens, UniProt P24941). The data set can be described thus: CDK2 kinase activity inhibition, Caliper mobility shift assay. The class given is biochemical. Here is the method:
(§1) CDK2/CycA2, CDK4/CycD3 and CDK6/cycD3 protein kinase activities were determined using the Caliper mobility shift assay. The compound was dissolved in DMSO and diluted with kinase buffer (CDK2/CycA2 and CDK6/cycD3 with 50 mM HEPES (pH 7.5), 10 mM MgCl2, 0.0015% Brij-35, and 2 mM dithiothreitol; CDK4/CycD3 with 20 mM HEPES (pH 7.5), 10 mM MgCl2, 0.01% Triton X-100, and 2 mM dithiothreitol), 5 μl of a 5-fold final concentration of the compound (10% DMSO) was added to a 384-well plate. Add 10 μL of 2.5-fold […] enzyme solution and incubate for 10 minutes at room temperature, then add 10 μL of 2.5-fold substrate solution (corresponding enzyme and substrate concentration CDK2/CycA2 12 nM, ATP Kin 39 μM; CDK4/CycD3 10 nM, ATP Km 221 μM; CDK6/cycD3 15 nM, ATP Km […]) Incubate at 28° C. (60 min CDK2, 180 min CDK4, 60 min CDK6) followed by 25 μl stop solution (100 mM HEPES (pH 7.5), 0.015% Brij-35, 0.2% Coating Reagent #3, 50 mM EDTA) Stop the reaction. Conversion rate data was read on a Caliper EZ Reader 11 (Caliper Life Sciences). The conversion rate was converted into inhibition rate data (% inhibition rate=(max−conversion rate)/(max−min)*100) Where max is the conversion of the DMSO control and min is the conversion of the enzyme-free control. Curves were plotted with compound concentration and inhibition rate on the horizontal and vertical coordinates, and the curve was fitted using XLFit excel add-in version 4.3.1 software and IC50 was calculated.

Another data set deals with CDK4/CycD3 (Homo sapiens, UniProt P11802). The data set can be described thus: CDK4 kinase activity inhibition, Caliper mobility shift assay. The class given is biochemical. As for the experimental part: as §1
Chain of CDK4/CycD3 (P11802 whole entry, species assumed): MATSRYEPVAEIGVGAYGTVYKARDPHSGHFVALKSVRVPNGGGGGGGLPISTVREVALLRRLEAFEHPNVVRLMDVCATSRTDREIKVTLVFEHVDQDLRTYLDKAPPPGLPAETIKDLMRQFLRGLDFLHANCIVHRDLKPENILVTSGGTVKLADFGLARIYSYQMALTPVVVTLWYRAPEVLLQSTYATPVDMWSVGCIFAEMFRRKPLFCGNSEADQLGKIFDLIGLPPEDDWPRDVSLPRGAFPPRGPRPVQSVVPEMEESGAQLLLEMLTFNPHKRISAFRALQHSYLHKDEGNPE
Chain of CDK4/CycD3 (P30281 whole entry partner, species assumed): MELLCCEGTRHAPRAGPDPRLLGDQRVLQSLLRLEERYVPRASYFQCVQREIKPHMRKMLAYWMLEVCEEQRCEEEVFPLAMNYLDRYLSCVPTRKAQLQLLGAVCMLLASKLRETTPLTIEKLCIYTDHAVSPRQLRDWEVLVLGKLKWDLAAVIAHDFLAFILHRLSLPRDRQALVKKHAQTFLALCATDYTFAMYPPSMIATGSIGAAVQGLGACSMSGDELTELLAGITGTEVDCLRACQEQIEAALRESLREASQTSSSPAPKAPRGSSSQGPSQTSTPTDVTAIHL
The target of another data set is CDK6/cycD3 (Homo sapiens, UniProt Q00534). Nature of the data set: CDK6 kinase activity inhibition, Caliper mobility shift assay. It counts as biochemical. As for the experimental part:
as §1

A short description of data set [1]: Pharmacokinetic study in mice, intragastric administration. It counts as in vivo. The note with it: mouse, male ICR mice, PO dose 5 mg/kg, plasma. Here is the method:
Instrument: API4000+LC/MS instrument manufactured by AB Sciex. All measurement data was collected and processed by Analyst 1.6.3 software, and data was calculated and processed by Microsoft Excel. Using the DAS 3.2.8 software, the statistical moment method was used to calculate the pharmacokinetic parameters. t mainly includes kinetic parameters Tmax, T½, Cmax, AUC(0-t) and the like Column: ACQUITY UPLC BEH C18 (2.1 mm×50 mm, 1.7 μm), column temperature 40° C.; mobile phase A is water (0.1% formic acid+5 mM ammonium acetate), mobile phase B is acetonitrile (0.1% acetic acid). The flow rate was 0.30 ml/min and the isocratic elution of 90% B was maintained for 1.5 minutes. Injection volume: 5 μL.
Animals: 12 male ICR mice, weighing 22-26 g, were used after 2 days of feeding in the laboratory of the experimental animal center. They were fasted 12 hours before the administration and 4 hours after the administration, and were free to drink during the test. Mice were randomly divided into four groups of 3 animals each. After intragastric administration, blood samples were taken at two different time points in each group.
Solvent: 0.5% Methylcellulose (aqueous solution containing 0.4% Tween 80). Formulation of intragastric administration solution. The compound is accurately weighed, added to the solvent, and sonicated at room temperature for 5 minutes to completely dissolve the drug to prepare a drug solution of 0.33 mg/ml.
Drug sample: A representative compound of the structure represented by the patent formula (I) of the present invention generally adopts a plurality of samples having similar structures (molecular weight difference of more than 2 units), accurately weighed, and administered together (cassette PK). This allows multiple compounds to be screened simultaneously and their oral absorption rates compared. Single drug administration was also used to study the pharmacokinetics of drug samples in mice.
Blood was taken from the eyelids at 0.25, 0.5, 1, 2, 4, 8, 12, and 24 hours after intragastric administration. In the heparin-treated tube, the supernatant was centrifuged for LC-MS/MS analysis.
Accurately weigh the compounds to different concentrations, perform quantitative analysis on the mass spectrometer to establish a standard curve, and then test the concentration of the compound in the above plasma to obtain the concentration of the compound at different time points. All the measured data were collected and processed by the relevant software, and the statistical moment method was used to calculate the pharmacokinetic parameters (mainly including the kinetic parameters Tmax, T1/2, Cmax, AUC(0-t), etc.).

The target of another data set is T1, FLT3 (Homo sapiens, UniProt P36888).
T1 sequence (P36888 27-993): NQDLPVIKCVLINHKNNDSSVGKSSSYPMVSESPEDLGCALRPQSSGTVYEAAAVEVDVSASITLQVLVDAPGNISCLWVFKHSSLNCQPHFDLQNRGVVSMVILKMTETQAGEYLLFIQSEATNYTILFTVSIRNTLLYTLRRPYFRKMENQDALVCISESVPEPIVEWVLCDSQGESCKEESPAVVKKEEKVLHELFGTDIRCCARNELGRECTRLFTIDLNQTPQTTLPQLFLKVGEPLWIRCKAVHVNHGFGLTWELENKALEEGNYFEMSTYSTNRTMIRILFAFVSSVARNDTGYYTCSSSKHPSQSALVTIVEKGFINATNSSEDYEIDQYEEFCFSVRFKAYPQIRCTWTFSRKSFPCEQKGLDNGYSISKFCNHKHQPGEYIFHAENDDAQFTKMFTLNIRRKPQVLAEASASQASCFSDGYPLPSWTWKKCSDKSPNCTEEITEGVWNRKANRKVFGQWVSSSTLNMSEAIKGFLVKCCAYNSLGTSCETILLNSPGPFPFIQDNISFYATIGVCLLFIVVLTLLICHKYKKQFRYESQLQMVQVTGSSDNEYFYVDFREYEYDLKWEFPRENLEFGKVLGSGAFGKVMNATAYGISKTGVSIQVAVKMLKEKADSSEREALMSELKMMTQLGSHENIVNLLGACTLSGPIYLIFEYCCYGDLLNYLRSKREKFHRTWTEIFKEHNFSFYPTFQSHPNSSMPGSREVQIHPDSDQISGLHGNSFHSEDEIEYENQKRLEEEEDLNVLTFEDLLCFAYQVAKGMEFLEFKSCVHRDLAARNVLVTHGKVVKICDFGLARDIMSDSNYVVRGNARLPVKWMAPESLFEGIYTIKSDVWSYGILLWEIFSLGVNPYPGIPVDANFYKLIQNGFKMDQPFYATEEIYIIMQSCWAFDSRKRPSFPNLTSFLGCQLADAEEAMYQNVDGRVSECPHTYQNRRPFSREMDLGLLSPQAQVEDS
Nature of the data set: FLT3 kinase activity inhibition, Caliper mobility shift assay. The class given is biochemical. As for the experimental part: FLT3 protein kinase activity was measured using the Caliper mobility shift assay. The compound was dissolved in DMSO and diluted with a kinase buffer (50 mM HEPES, pH 7.5, 0.0015% Brij-35, 2 mM DTT), and 5 μL of a 5-fold final concentration of the compound (10% DMSO) was added to a 384-well plate. After adding 10 μL of 2.5-fold FLT3 enzyme solution, incubate for 10 minutes at room temperature, and then add 10 μL of a 2.5-fold substrate (FAM-labeled polypeptide and ATP) solution. After incubation at 28° C. for 60 minutes, the reaction was stopped by adding 25 μL of stop solution (100 mM HEPES, 0.015% Brij-35, 0.2% Coating Reagent #3, 50 mM EDTA, pH 7.5). Conversion rate data was read on a Caliper EZ Reader II (Caliper Life Sciences). The conversion rate was converted into inhibition rate data (% inhibition rate=(max−conversion rate)/(max−min)*100). Where max is the conversion of the DMSO control and min is the conversion of the enzyme-free control Curves were plotted with compound concentration and inhibition rate on the horizontal and vertical coordinates, and the curve was fitted using XLFit excel add-in version 4.3.1 software and IC50 was calculated.

In a further data set the target is T2, Axl (Homo sapiens, UniProt P30530).
T2 sequence (P30530 26-894): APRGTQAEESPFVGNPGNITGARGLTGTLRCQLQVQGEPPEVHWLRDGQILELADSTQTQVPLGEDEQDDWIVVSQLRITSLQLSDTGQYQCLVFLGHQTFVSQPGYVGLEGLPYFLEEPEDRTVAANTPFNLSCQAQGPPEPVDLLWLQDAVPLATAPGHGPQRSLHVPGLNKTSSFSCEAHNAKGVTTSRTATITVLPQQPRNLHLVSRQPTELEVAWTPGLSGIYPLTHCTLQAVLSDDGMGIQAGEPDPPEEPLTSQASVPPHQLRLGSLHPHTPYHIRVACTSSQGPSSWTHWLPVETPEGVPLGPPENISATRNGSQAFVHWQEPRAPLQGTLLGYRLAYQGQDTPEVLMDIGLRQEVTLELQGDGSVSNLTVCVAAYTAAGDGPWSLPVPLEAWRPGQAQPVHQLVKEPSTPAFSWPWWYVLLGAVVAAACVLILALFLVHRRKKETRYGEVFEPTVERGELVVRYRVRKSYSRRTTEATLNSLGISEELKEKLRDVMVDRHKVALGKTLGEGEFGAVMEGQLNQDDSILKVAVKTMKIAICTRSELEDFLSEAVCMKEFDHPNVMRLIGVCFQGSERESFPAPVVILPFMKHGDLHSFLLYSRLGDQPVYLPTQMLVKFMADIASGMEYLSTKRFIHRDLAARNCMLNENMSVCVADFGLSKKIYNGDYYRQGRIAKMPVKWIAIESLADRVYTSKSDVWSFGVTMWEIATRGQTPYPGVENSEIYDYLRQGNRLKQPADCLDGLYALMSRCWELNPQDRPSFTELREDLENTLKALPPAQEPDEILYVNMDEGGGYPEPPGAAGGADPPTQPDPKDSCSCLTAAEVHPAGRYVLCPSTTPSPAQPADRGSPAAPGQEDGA
Nature of the data set: Axl kinase activity inhibition, Caliper mobility shift assay. The class given is biochemical. As for the experimental part:
Axl protein kinase activity was determined using the Caliper mobility shift assay. The compound was dissolved in DMSO and diluted with kinase buffer (50 mM HEPES, pH 7.5, 0.0015% Brij-35, 2 mM DTT), and 5 μL of 5 times the final concentration of the compound (10%) was added to the 384-well plate. DMSO). After adding 10 μL of a 2.5-fold Axl enzyme solution, incubate for 10 minutes at room temperature, and then add 10 μL of a 2.5-fold substrate (FAM-labeled polypeptide and ATP) solution. After incubation at 28° C. for 60 minutes, the reaction was stopped by the addition of […] stop solution (100 mM HEPES, 0.015% Brij-35, 0.2% Coating Reagent #3, 50 mM EDTA, pH 7.5). Conversion rate was read on a Caliper EZ Reader II (Caliper Life Sciences). The conversion rate was converted into inhibition rate (% inhibition rate=(max−conversion rate)/(max−min)*100). Where max is the conversion of the DMSO control and min is the conversion of the enzyme-free control. Curves were plotted with compound concentration and inhibition rate on the horizontal and vertical coordinates, and the curve was fitted using XLFit excel add-in version 4.3.1 software and IC50 was calculated.

What is called IC50 is the concentration that gives 50% inhibition. Usually Cmax stands for the peak of the concentration-time curve. Usually Tmax stands for the time from dosing to the highest level. Broadly, the half-life is the time needed for the level to fall by half in the phase considered.

Chain of CDK6/cycD3 (Q00534 whole entry, species assumed): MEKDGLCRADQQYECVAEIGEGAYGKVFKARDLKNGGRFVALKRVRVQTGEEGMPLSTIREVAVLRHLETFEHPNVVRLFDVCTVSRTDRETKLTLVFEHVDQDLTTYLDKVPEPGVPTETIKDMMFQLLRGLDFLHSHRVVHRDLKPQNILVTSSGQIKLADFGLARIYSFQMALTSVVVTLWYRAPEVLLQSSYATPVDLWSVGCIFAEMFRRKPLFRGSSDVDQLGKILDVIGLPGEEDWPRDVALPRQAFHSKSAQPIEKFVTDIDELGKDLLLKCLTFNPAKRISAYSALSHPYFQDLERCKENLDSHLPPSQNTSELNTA
Chain of CDK6/cycD3 (P30281 whole entry partner, species assumed): as the sequence (P30281 whole entry partner, species assumed) above

Consider `Cc1nc2c(F)cc(-c3nc(Nc4ccc5c(c4)OC[C@H]4CN(C)CCN54)ncc3F)cc2n1C(C)C` [Compound B1R], for which the IC50 at CDK2/CycA2 was less than 10 nM; on CDK4/CycD3, less than 10 nM; at CDK6/cycD3 it was less than 50 nM.
On to `Cc1nc2c(F)cc(-c3nc(Nc4ccc5c(c4)OC[C@@H]4CN(C)CCN54)ncc3F)cc2n1C(C)C` [Compound B1S], for which the IC50 was less than 10 nM at CDK2/CycA2, less than 10 nM at CDK4/CycD3 and less than 50 nM on CDK6/cycD3.
`Cc1nc2c(F)cc(-c3nc(Nc4ccc5c(c4)OC[C@H]4CN(C6CCOCC6)CCN54)ncc3F)cc2n1C(C)C` [Compound B2R]: at CDK2/CycA2, the IC50 is less than 10 nM. On CDK4/CycD3, the IC50 is less than 10 nM. On CDK6/cycD3, the IC50 is less than 50 nM. Further, in data set [1], the highest level (Cmax) was 495 ng/mL, the Tmax came to 1 h and the half-life was 5.72 h. Besides, the AUC(0-t) in data set [1] (read-out: AUC(0-24)) worked out at 2200 ng·h/mL.
`Cc1nc2c(F)cc(-c3nc(Nc4ccc5c(c4)OC[C@H]4CN(C6CCN(C)CC6)CCN54)ncc3F)cc2n1C(C)C` [Compound B3R]: the IC50 on CDK2/CycA2, at CDK4/CycD3 and at CDK6/cycD3 was less than 10 nM in each case.
Turning to `CCc1nc(C(N)=O)c(Nc2ccc3c(c2)OC[C@H]2CN(C)CCN32)nc1NC1CCOCC1` [Compound D1R], the figures for the IC50 on FLT3 and at Axl were less than 1 nM and less than 10 nM, respectively.
The like results for `CCc1nc(C(N)=O)c(Nc2ccc3c(c2)OC[C@@H]2CN(C)CCN32)nc1NC1CCOCC1` [Compound D1S] were, in that order, less than 1 nM and less than 10 nM.
The like results for `CCc1nc(C(N)=O)c(Nc2ccc3c(c2)OC[C@H]2CN(C4CCN(C)CC4)CCN32)nc1NC1CCOCC1` [Compound D6R] were, in that order, less than 1 nM and less than 10 nM.
